# Experimental data taken from patent US20250171821A1, “HIF-1 ACTIVATORS AND USES THEREOF” (Ramot at Tel-Aviv University Ltd., priority 2022, published 2025).
# Tests used:
# NIH/3T3 cell line = assay: Collagen type 1 immunofluorescence in NIH/3T3 cells (Incucyte); format: cell-based, mouse
# Procedure: Embryonic mouse fibroblast NIH/3T3 cell line (ATCC) were seeded at a concentration of 50*10^3 cells/well on 96 well glass bottom plate (P96-1.5H-N, Cellvis) for the immunofluorescence experiment and on cell culture microplate, 96 well, PS, F-Bottom (655090, greiner) for the viability experiment. The cells were cultured with Dulbecco's modified Eagle's medium (DMEM) supplemented with 10% fetal calf serum, 1% Penicillin-Streptomycin solution and 1% L-glutamine (All purchased from Rhenium). At 24 hours post seeding, cells were treated for another 48 hours by replacing them with the cell medium supplemented with a serial dilution (5-0.02 μM, factor dilution of 2) of the ML228, Daprodustat, Enarodustat, Molidustat, Vadadustat or Roxadustat molecules dissolved in DMSO. The final DMSO concentration in the cell medium was 0.01%. Cells were maintained in an incubator at 37° C. in a humidified atmosphere containing 5% CO2.
# At 48 hours post treatment with either Daprodustat, Enarodustat, Molidustat, Vadadustat or Roxadustat, cells were fixed for 10 minutes together with their media with 8% paraformaldehyde (PFA, Electron Microscopy Sciences) dissolved in phosphate-buffered saline (PBS, Invitrogen) to a final concentration of 4% PFA, without any wash to avoid cells detachment from the glass. Cells were briefly washed four times with ice-cold PBS to remove the PFA and kept overnight at 4° C. The following day, a blocking solution which contains 1.5% Bovine Serum Albumin (Sigma Aldrich) dissolved in PBS was applied for 30 minutes, followed by an overnight incubation at 4° C. with recombinant rabbit anti-mouse Collagen-I 1° antibody (primary Ab) [EPR24331-53] (ab270993, Abcam), dissolved in the blocking solution (1:1000 dilution). The following day, cells were washed for 3 times with PBS (5 minutes each), followed by immunostaining with goat anti-rabbit IgG H&L (Alexa Fluor® 488) 2° antibody (secondary Ab) (ab150077, Abcam) dissolved in blocking solution (1:1000 dilution). Cells were washed again for 3 times with PBS (5 minutes each), stained for 30 minutes with DRAQ5™ (ab108410, Abcam) for nuclei staining dissolved in PBS (1:1000 dilution), and washed once again with PBS. For the ML228 experiment, cells were washed with PBS before applying 4% PFA dissolved in PBS. Then, fixed cells were additionally permeabilized with 0.2% Triton™ X-100 (Merck) dissolved in PBS, additionally stained with Phalloidin-Atto 594 (51927, Sigma Aldrich) for F-Actin staining for 1 hour (1:250 dilution) together with the aforementioned secondary antibody, followed by 10 minutes incubation with DAPI staining solution (ab228549, Abcam) for nuclei staining dissolved in PBS (1:1000 dilution).
# Images were taken using a ZEISS LSM 900 in wide-field or in the LSM confocal detection mode (ML228 experiment), using Zen 3.1. Fluorescence readouts were obtained at excitation/emission: 353/465 nm (DAPI), 493/517 nm (Collagen-I), 590/618 (F-Actin) and 647/683 nm (DRAQ5) using a Plan-Apochromat 20×/0.8 M27 objective.
# Image acquisition and quantification were performed by Incucyte SX5 (Sartorius) using software version 2022B Rev2. A standard scan was done for 9 images per well using 20× objective, 2 optical modules (green at excitation/emission of 453-485 nm/494-533 nm in 300 msec acquisition time, and near-IR at excitation/emission of 648-674 nm/685-756 nm in 400 msec acquisition time, including Phase channel) following immunofluorescence protocol. For the image analysis, 2-6 replicates per condition were used. Using the Basic Analyzer mode, “Phase Object Confluence (%)” was acquired using the Phase channel. This measurement is the percentage of the image area occupied by cells. “Total Collagen-I Integrated Intensity Per Image (GCU×μm^2/Image)” was acquired using the green optical module. GCU stands for Green calibrated Unit, while this measurement is the total sum of the Collagen-I objects' fluorescent intensity in the image. “#Cells (Per image)” was acquired by the near-IR optical module. […]
# [1] = tested on: human gingival fibroblasts cells (HGF); assay: Collagen-I immunofluorescence in human fibroblasts treated with ML228; format: cell-based; conditions: 48 hours
# Text: Human fibroblasts were isolated from fragments of healthy masticatory oral mucosa (from the posterior hard palate) collected during periodontal surgeries. Informed consent was obtained from all patients. Shallow tissue samples (without submucosa) with a diameter of approximately 2 mm were excised using a #15C scalpel blade. Exclusion criteria for potential tissue donors were smoking, any systemic disease, pregnancy or lactation, or a history of periodontal disease. Cells were separated into connective tissue and epithelium using dispase II (Sigma-Aldrich, Rehovot, Israel) at 2 mg/mL for two hours at 37° C.
# Cells were cultured to sub-confluence on a 96-well plate culture plate or on round-glass cover slips in a 24 well plate and incubated with ML228 at 37° C. in 5% CO2 for 24-96 hours. Cells were fixed for 20 minutes with 4% paraformaldehyde in phosphate-buffered saline (PBS), washed 3 times with PBS, blocked with 2% bovine serum albumin diluted in PBS, which contains 0.1% Triton X-100 for 20 minutes. Fixed cells were incubated with 1:200 of rabbit anti-human type I collagen (Abcam, Cambridge, UK) for 1 hour at 25° C. […] Fluorescence readouts were obtained with excitation/emission (ex/em) of 495/519 nanometer (nm; green) and 340/488 nm (blue) (for FIGS. 2B and 2D); or with ex/em of 358/461 nm (blue), 495/519 nm (green) and 652/668 nm (red) (for FIG. 5A).
# All images were analyzed with the computer-based image analysis system (Image J) using the Fiji 2 software (National Institute of Health). Equal field areas were selected for analysis and quantification of fluorescence signals. Quantification of fluorescence signal intensity measured by color threshold and normalized against β-tubulin intensity. Total collagen was evaluated by total fluorescence area intensity.
# The effect of ML228 (chemical structure thereof is depicted in FIG. 1), a known activator of HIF, on fibroblasts and osteoblasts was analyzed. […] Collagen-I levels were evaluated by immunohistochemistry via Collagen-I antibody and a fluorescently-labeled secondary antibody. […]
compound,measurement,setting,value
"c1ccc(-c2ccc(CNc3nc(-c4ccccn4)nnc3-c3ccccc3)cc2)cc1 [ML228, N-([1,1′-Biphenyl]-4-ylmethyl)-6-phenyl-3-(2-pyridinyl)-1,2,4-triazin-5-amine]",Collagen type 1 normalized to cells confluence vs untreated cells,"NIH/3T3 cell line; 5 μM ML228, 48 hours, p<0.05",reduction
same,concentrations with significant increase of Collagen type 1 normalized to cells confluence vs untreated cells,"NIH/3T3 cell line; 48 hours, one-way ANOVA, p<0.05 to p<0.0001",0.31 to 2.5 µM
same,Collagen-I levels compared to baseline of non-treated cells,"[1]; ML228 above 312 nM, normalized to cell number (DAPI), FIG. 5C",more than two-fold higher
same,Collagen-I levels at higher concentrations,"[1]; ML228 above 10 μM (10 or 20 μM), HGF cells",gradually decrease
same,concentration at which maximum collagen levels were observed,[1]; fibroblasts,5 µM
